The values below come from ChEMBL document CHEMBL4613208, “Isatin derivatives and their anti-bacterial activities” (Eur J Med Chem, 2019).

For experiment [1], the system named is Pseudomonas aeruginosa. Description: Antibacterial activity against Pseudomonas aeruginosa by two-fold serial dilution technique. Format: functional.
In experiment [2] the test system is Staphylococcus aureus. Description: Antibacterial activity against Staphylococcus aureus by two-fold serial dilution technique. Format: functional.
The test system of experiment [3] is Escherichia coli. Description: Antibacterial activity against Escherichia coli by two-fold serial dilution technique. It counts as functional.
Another experiment deals with Bacillus subtilis. The experiment can be described thus: Antibacterial activity against Bacillus subtilis by two-fold serial dilution technique. It counts as functional.
The next experiment deals with Micrococcus luteus. Description: Antibacterial activity against Micrococcus luteus after 24 hrs by paper disc diffusion technique. It counts as functional. In general terms: Agar diffusion results depend on both activity and mobility in agar.
Experiment [4] relates to Escherichia coli. Description: Antibacterial activity against Escherichia coli after 24 hrs by paper disc diffusion technique. It counts as functional.
The test system of experiment [5] is Staphylococcus aureus. The experiment can be described thus: Antibacterial activity against Staphylococcus aureus after 24 hrs by paper disc diffusion technique. Format: functional.
Experiment [6] has as its system Pseudomonas aeruginosa. The experiment can be described thus: Antibacterial activity against Pseudomonas aeruginosa after 24 hrs by paper disc diffusion technique. Format: functional.
The test system of a further experiment is Klebsiella pneumoniae. Description: Antibacterial activity against Klebsiella pneumoniae after 24 hrs by paper disc diffusion technique. Format: functional.
Experiment [7] has as its system Staphylococcus epidermidis. The experiment can be described thus: Antibacterial activity against Staphylococcus epidermidis after 24 hrs by paper disc diffusion technique. Format: functional.
The test system of experiment [8] is Pseudomonas aeruginosa. Description: Antibacterial activity against Pseudomonas aeruginosa. It counts as functional, organism-based.
In the next experiment the test system is Salmonella typhi. The experiment can be described thus: Antibacterial activity against Salmonella typhi. It counts as functional, Salmonella enterica subsp. enterica serovar Typhi. The note with it: Salmonella enterica.
The subject of experiment [9] is Escherichia coli. The experiment can be described thus: Antibacterial activity against Escherichia coli. It counts as functional, organism-based.
In experiment [10] the test system is Staphylococcus aureus. Description: Antibacterial activity against Staphylococcus aureus. Format: functional, organism-based.
Where [11] appears, read: Micrococcus luteus, 24 h, read-out: MIC.
Setting [12] is: Escherichia coli, 24 h, read-out: MIC.
Where [13] appears, read: Staphylococcus aureus, 24 h, read-out: MIC.
The mark [14] stands for this setting: Pseudomonas aeruginosa, 24 h, read-out: MIC.
Where [15] appears, read: Klebsiella pneumoniae, 24 h, read-out: MIC.
Where [16] appears, read: Staphylococcus epidermidis, 24 h, read-out: MIC.

≈ marks a conversion by molar mass, not a printed value.

Take `O=C(N/N=C1\C(=O)Nc2ccc(C(=O)O)cc21)N/N=C1\C(=O)Nc2ccc(C(=O)O)cc21`: the MIC in the experiment on Pseudomonas aeruginosa [1], in the experiment with Staphylococcus aureus [2], in the experiment with Escherichia coli [3] and with Bacillus subtilis was 6.25 to 100 µg/mL (≈ 14.3 to 229 µM) each time.

As for `O=C(O)c1cn(C2CC2)c2cc(N3CCN(CN4C(=O)/C(=N/c5ccc(/N=C/c6ccc([N+](=O)[O-])cc6)cc5)c5cc(F)ccc54)CC3)c(F)cc2c1=O`, the MIC (in the experiment on Micrococcus luteus (setting [11]); with Escherichia coli [4] (setting [12]); in the experiment with Staphylococcus aureus [5] (setting [13]); in the experiment with Pseudomonas aeruginosa [6] (setting [14]); in the experiment on Klebsiella pneumoniae (setting [15]); in [7] (setting [16])) was 7.81 to 125 µg/mL (≈ 10.7 to 171 µM) throughout.

Take `O=C(O)c1cn(C2CC2)c2cc(N3CCN(CN4C(=O)/C(=N/c5ccc(/N=C/c6ccccc6)cc5)c5cc(F)ccc54)CC3)c(F)cc2c1=O`: the minimal inhibitory concentration (MIC) (in the experiment with Micrococcus luteus (setting [11]); in the experiment with Escherichia coli [4] (setting [12]); in the experiment with Staphylococcus aureus [5] (setting [13]); in the experiment on Pseudomonas aeruginosa [6] (setting [14]); in the experiment on Klebsiella pneumoniae (setting [15]); in experiment [7] (setting [16])) was 7.81 to 125 µg/mL (≈ 11.4 to 182 µM) each time.

As for `O=C(O)c1cn(C2CC2)c2cc(N3CCN(CN4C(=O)/C(=N/c5ccc(/N=C/c6ccc(Cl)cc6)cc5)c5cc(F)ccc54)CC3)c(F)cc2c1=O`, the MIC (in the experiment with Micrococcus luteus (setting [11]); in the experiment on Escherichia coli [4] (setting [12]); in the experiment on Staphylococcus aureus [5] (setting [13]); with Pseudomonas aeruginosa [6] (setting [14]); with Klebsiella pneumoniae (setting [15]); in experiment [7] (setting [16])) was 7.81 to 125 µg/mL (≈ 10.8 to 173 µM) throughout.

For `Cc1ccc(NC(=O)CN2C(=O)/C(=N\c3ccccc3)c3ccccc32)cc1`, the values for the minimal inhibitory concentration (MIC) in the experiment with Pseudomonas aeruginosa [8] and against Salmonella typhi were 0.003 to 0.324 µM and 0.003 to 0.324 µM (≈ 0.00111 to 0.12 µg/mL), respectively.

For the compound `O=C(O)c1cn(C2CC2)c2cc(N3CCN(CN4C(=O)/C(=N/c5ccc(/N=C/c6ccc(O)cc6)cc5)c5cc(F)ccc54)CC3)c(F)cc2c1=O`, the minimum inhibitory concentration (MIC) (usually the lowest concentration found to suppress growth) in the experiment with Micrococcus luteus lay within 7.81 to 15.62 µg/mL; with Micrococcus luteus (setting [11]), 7.81 to 125 µg/mL (≈ 11.1 to 178 µM); against Escherichia coli [4], 7.81 to 15.62 µg/mL; in the experiment with Escherichia coli [4] (setting [12]) it was 7.81 to 125 µg/mL (≈ 11.1 to 178 µM); with Staphylococcus aureus [5] it was 7.81 to 15.62 µg/mL; with Staphylococcus aureus [5] (setting [13]) it was 7.81 to 125 µg/mL (≈ 11.1 to 178 µM). Moreover, the MIC in the experiment with Pseudomonas aeruginosa [6] fell in the range of 7.81 to 15.62 µg/mL; in the experiment with Pseudomonas aeruginosa [6] (setting [14]), 7.81 to 125 µg/mL (≈ 11.1 to 178 µM); in the experiment on Klebsiella pneumoniae it was 7.81 to 15.62 µg/mL; with Klebsiella pneumoniae (setting [15]), 7.81 to 125 µg/mL (≈ 11.1 to 178 µM); in [7] it was 7.81 to 15.62 µg/mL; in experiment [7] (setting [16]), 7.81 to 125 µg/mL (≈ 11.1 to 178 µM).

Turning to `CC1(C)S[C@@H]2[C@H](NC(=O)Cc3ccccc3)C(=O)N2[C@H]1C(=O)O` [PENICILLIN G], the IC50 in the experiment on Pseudomonas aeruginosa [8], with Escherichia coli [9] and with Staphylococcus aureus [10] was 631 µM throughout.

In the case of `O=C(N/N=C1\C(=O)Nc2ccc(Br)cc21)N/N=C1\C(=O)Nc2ccc(Br)cc21`, the minimal inhibitory concentration (MIC) against Pseudomonas aeruginosa [1], in the experiment with Staphylococcus aureus [2], in the experiment on Escherichia coli [3] and against Bacillus subtilis was 6.25 to 100 µg/mL (≈ 12.3 to 198 µM) in each case.

On to `COc1cc(/C=N/c2ccc(/N=C3/C(=O)N(CN4CCN(c5cc6c(cc5F)c(=O)c(C(=O)O)cn6C5CC5)CC4)c4ccc(F)cc43)cc2)cc(OC)c1OC`, for which the minimum inhibitory concentration (MIC) (in the experiment on Micrococcus luteus (setting [11]); in the experiment with Escherichia coli [4] (setting [12]); with Staphylococcus aureus [5] (setting [13]); with Pseudomonas aeruginosa [6] (setting [14]); in the experiment on Klebsiella pneumoniae (setting [15]); in [7] (setting [16])) was 7.81 to 125 µg/mL (≈ 10.1 to 161 µM) in each case.

As for `O=C1Nc2ccccc2/C1=N/NC(=O)c1cccc(Br)c1`, the concentration for half-maximal inhibition (IC50) in the experiment on Pseudomonas aeruginosa [8], with Escherichia coli [9] and in the experiment on Staphylococcus aureus [10] was 30 to 50 µM in each case.

As to `CN(C)c1ccc(/C=N/c2ccc(/N=C3/C(=O)N(CN4CCN(c5cc6c(cc5F)c(=O)c(C(=O)O)cn6C5CC5)CC4)c4ccc(F)cc43)cc2)cc1`, the minimum inhibitory concentration (MIC) (in the experiment on Micrococcus luteus (setting [11]); in the experiment with Escherichia coli [4] (setting [12]); in the experiment with Staphylococcus aureus [5] (setting [13]); with Pseudomonas aeruginosa [6] (setting [14]); in the experiment on Klebsiella pneumoniae (setting [15]); in experiment [7] (setting [16])) was 7.81 to 125 µg/mL (≈ 10.7 to 171 µM) throughout.

As to `Cc1ccc(NC(=O)CN2C(=O)/C(=N\c3ccccc3)c3ccccc32)c(C)c1`, the minimal inhibitory concentration (MIC) was 0.003 to 0.324 µM against Pseudomonas aeruginosa [8] and 0.003 to 0.324 µM (≈ 0.00115 to 0.124 µg/mL) in the experiment with Salmonella typhi.

On to `Cc1ccc(C)c(NC(=O)CN2C(=O)/C(=N\c3ccccc3)c3ccccc32)c1`, for which the MIC in the experiment on Pseudomonas aeruginosa [8] lay within 0.003 to 0.324 µM; against Salmonella typhi it was 0.003 to 0.324 µM (≈ 0.00115 to 0.124 µg/mL).

Take `COc1ccc(NC(=O)CN2C(=O)/C(=N\c3ccccc3)c3ccccc32)cc1`: the minimal inhibitory concentration (MIC) against Pseudomonas aeruginosa [8] was in the range of 0.003 to 0.324 µM; in the experiment on Salmonella typhi, 0.003 to 0.324 µM (≈ 0.00116 to 0.125 µg/mL).

Take `Cc1c(C)c2c(c(C)c1O)CCC(C)(C(=O)N/N=C1\C(=O)Nc3ccccc31)O2` (configuration not stated): the minimum inhibitory concentration (MIC) against Pseudomonas aeruginosa [8] was 12.5 to 100 µg/mL; in the experiment with Escherichia coli [9], 12.5 to 100 µg/mL (≈ 31.8 to 254 µM); in the experiment on Staphylococcus aureus [10], 12.5 to 100 µg/mL (≈ 31.8 to 254 µM).

In the case of `Cc1ccccc1NC(=O)CN1C(=O)/C(=N\c2ccccc2)c2ccccc21`, the minimum inhibitory concentration (MIC) with Pseudomonas aeruginosa [8] fell in the range of 0.003 to 0.324 µM; in the experiment on Salmonella typhi, 0.003 to 0.324 µM (≈ 0.00111 to 0.12 µg/mL).

Take `Cc1ccc(NC(=O)CN2C(=O)/C(=N\c3cc(C)ccc3C)c3ccccc32)cc1`: the MIC against Pseudomonas aeruginosa [8] lay in the range of 0.003 to 0.324 µM; in the experiment on Salmonella typhi it was 0.003 to 0.324 µM (≈ 0.00119 to 0.129 µg/mL).

Turning to `O=C(O)c1cn(C2CC2)c2cc(N3CCN(CN4C(=O)/C(=N/c5ccc(/N=C/c6cccc([N+](=O)[O-])c6)cc5)c5cc(F)ccc54)CC3)c(F)cc2c1=O`, the MIC (in the experiment on Micrococcus luteus (setting [11]); in the experiment with Escherichia coli [4] (setting [12]); with Staphylococcus aureus [5] (setting [13]); in the experiment on Pseudomonas aeruginosa [6] (setting [14]); in the experiment with Klebsiella pneumoniae (setting [15]); in experiment [7] (setting [16])) was 7.81 to 125 µg/mL (≈ 10.7 to 171 µM) throughout.
